From patent publication EP1420018A1, “Pyrido[1,2-a]benzimidazole derivatives useful in treating central nervous system disorders” (Ortho-McNeil Pharmaceutical, Inc., priority 1996, dated 1998)
Structures can show the parent of a compound that is named as a salt. Where two headings read alike, the source gives them in different places.

Key:
[1] = target: benzodiazepine site of the GABA-A receptor; test: Benzodiazepine Receptor Binding Assay (inhibition of 3H-flunitrazepam binding); settings: read-out: GABAA Receptor Binding IC50
[2] = tested on: Anxiety in the Adult Male Rat; test: Suppression of Anxiety in the Adult Male Rat (rat conflict test); type: in vivo, rats; settings: Rattus norvegicus
Description: Assay to Measure the Suppression of Anxiety in the Adult Male Rat
Male rats were deprived of water for 48 hours and were deprived of food for 24 hours prior to testing. After the first 24 hours of water deprivation, they were placed in the conflict chamber for a training period; wherein, they were allowed 200 unpunished licks from a bottle containing tap water. The experiment was run the next day. At the expected time of peak activity, the animals were placed in the chamber and allowed access to tap water. […] Their first lick initiates a 3-min test session. Subsequently, every 20th lick was punished by a 0.2-s shock delivered via the stainless-steel drinking-tube.
The Wilcoxon rank-sum test (Mann-Whitney U-test) was used to test for an increase (p<0.05, 1-tailed) in the median number of shocks in drug-treated groups, compared to a concurrently run vehicle-treated group. The biological assay is considered to be valid if the effects of a known anxiolytic (positive control) are detected, within the same experiment.

[3] = tested on: metrazol-induced convulsions; test: Suppression of Metrazol-Induced Convulsions in Adult Male Mice; type: in vivo; settings: Mus musculus, ip
Description: Assay to Determine the Suppression of Metrazol-Induced Convulsions in Adult Male Mice
Male CD1 mice, were fasted at least 16 hours, were divided into equal groups and test compounds or vehicle were administered parenterally. Water was not withheld except during the period of observations. […] Metrazol was dissolved in 0.9% sodium chloride solution, and its dose volume was 10 ml/kg. Animals were housed individually for observation of clonic convulsions, tonic convulsions and death for a period of 30 min. […] The biological assay was considered to be valid if the effects of a known anticonvulsant (positive control) were detected, within the same experiment. Activity was reported as percent reduction of clonic convulsions from the vehicle group.

[4] = tested on: metrazol-induced convulsions; test: as above; type: in vivo; settings: Mus musculus, po
[5] = inhibition of 3H-flunitrazepam (ca. 3 nM) binding to membranes, 25°C, over 10,000 = not active
[6] = po, minimum effective dose, increase in shocks tolerated, >10 = active dose not determined, read-out: Rat Conflict (MED, mg/kg) po
[7] = block of clonic convulsions, male CD1 mice, >30 = active dose not determined
[8] = po, rat, po, read-out: Rat Conflict (MED, mg/kg) po
[9] = ip, rat, ip, read-out: Rat Conflict (MED, mg/kg) ip

SMILES	IC50 [1, 5] [nM]	minimal effective dose [2, 6] [mg/kg]	ED50 [3, 7] [mg/kg]	ED50 [4, 7] [mg/kg]	IC50 [1] [nM]	minimal effective dose [2, 8] [mg/kg]	ED50 ([3]; mouse) [mg/kg]	ED50 ([4]; mouse) [mg/kg]	minimal effective dose [2, 9] [mg/kg]	minimal effective dose ([2]; ip, minimum effective dose, increase in shocks tolerated, >10 = active dose not determined, read-out: Rat Conflict (MED, mg/kg) ip) [mg/kg]
COCCN(C)CCN1C2=C(C(=O)Nc3ccccc3F)C(=O)CCN2c2ccc(F)cc21 [Compound 38, 7-Fluoro-1,2-dihydro-5-[N-(2-(methoxy)ethyl)-2-(methylamino)ethyl]-3-oxo-N-(2-fluorophenyl)pyrido[1,2-a]-benzimidazole-4-carboxamide]	4.06	3	< 1	1						
COC(=O)OCCN1C2=C(C(=O)Nc3ccccc3F)C(=O)CCN2c2ccc(F)cc21 [Compound 114, 7-Fluoro-1,2-dihydro-5-[2-(methoxycarbonyloxy)ethyl]-3-oxo-N-(2-fluorophenyl)pyrido[1,2-a]benzimidazole-4-carboxamide]					0.3	3	< 1	≤ 3		
CCOC(CCN1C2=C(C(=O)Nc3ccccc3F)C(=O)CCN2c2ccc(F)cc21)OCC [Compound 154]					6.98	3	< 1	~3		
CCOCN1C2=C(C(=O)NC3CC3)C(=O)CCN2c2ccc(F)cc21 [Compound 111]					1.9	> 10	> 1	> 30		
CCOCN1C2=C(C(=O)Nc3ccccc3F)C(=O)CCN2c2ccc(Cl)cc21 [Compound 157]					0.48	> 10	< 1	~2		
CCOCN1C2=C(C(=O)Nc3cc4ccccc4s3)C(=O)CCN2c2ccccc21 [Compound 116]					100	> 10	> 1	> 30		
CC(C)(C)OC(=O)N1CCN(CCN2C3=C(C(=O)Nc4ccccc4F)C(=O)CCN3c3ccc(F)cc32)CC1 [Compound 80]					3.7	> 10	> 1	> 30		
CCOCN1C2=C(C(=O)Nc3c(F)cccc3F)C(=O)CCN2c2ccc(F)cc21 [Compound 173]					0.65	> 10	1	3	> 10	
O=C1CCN2C(=C1C(=O)Nc1ccccc1F)N(CCCO)c1cc(F)ccc12 [Compound 169]					1.08	10	0.1	0.5	10	
CC(C)(C)OC(=O)NCCN1C2=C(C(=O)Nc3ccccc3F)C(=O)CCN2c2ccc(F)cc21 [Compound 58]					0.54	> 10	< 1	< 30	≤ 10	
CCOCCN1C2=C(C(=O)Nc3nccs3)C(=O)CCN2c2ccc(F)cc21 [Compound 141]					6.78	> 3	< 1	~6		
N#CCN1C2=C(C(=O)NC3CCCCC3)C(=O)CCN2c2ccc(F)cc21 [Compound 78]					30	> 10	> 1	> 30		
CCN(C)CCN1C2=C(C(=O)Nc3ccccc3F)C(=O)CCN2c2ccc(F)cc21 [Compound 41]	9.8	10	3	~10						
CC(C)NC(=O)NCCN1C2=C(C(=O)Nc3ccccc3F)C(=O)CCN2c2ccc(F)cc21 [Compound 79]					10.5	> 10	> 1	> 30		
CCOCN1C2=C(C(=O)Nc3ccsc3)C(=O)CCN2c2ccc(F)cc21 [Compound 124]					0.98	~0.3	< 1	~0.2		
CN(C)CCCN1C2=C(C(=O)Nc3ccccc3F)C(=O)CCN2c2ccc(F)cc21 [Compound 67]					3.29	> 10	3	30	10	
COCCN1C2=C(C(=O)Nc3ccccc3F)C(=O)CCN2c2ccccc21 [Compound 153]					1.3	≤ 1	< 1	1		
CC1(CN2C3=C(C(=O)Nc4ccccc4F)C(=O)CCN3c3ccc(F)cc32)COC1 [Compound 180]					18	> 10	1	> 30		
CN(C)CCN1C2=C(C(=O)Nc3c(F)cccc3F)C(=O)CCN2c2ccc(F)cc21 [Compound 73]					32.1		> 10	> 30	> 10	
O=C1CCN2C(=C1C(=O)Nc1ccccc1F)N(CCNS(=O)(=O)C(F)(F)F)c1cc(F)ccc12 [Compound 48, 7-Fluoro-1,2-dihydro-5-[2-(trifluoromethylsulfonamido)ethyl]-3-oxo-N-(2-fluorophenyl)pyrido[1,2-a]benzimidazole-4-carboxamide]					30.2	10	≤ 1	< 30		
O=C1CCN2C(=C1C(=O)Nc1ccccc1F)N(CCN1CCOCC1)c1cc(F)ccc12 [Compound 88]	3.67	10	0.1	7						> 10
COCCN1C2=C(C(=O)Nc3ccccc3F)C(=O)CCN2c2ccc(C(F)(F)F)cc21 [Compound 148]					1.98	> 10	< 1	~10		
CC(=O)NCCN1C2=C(C(=O)Nc3ccccc3F)C(=O)CCN2c2ccc(F)cc21 [Compound 53]					5.47		7	30	> 10	
O=C1CCN2C(=C1C(=O)Nc1cccnc1)N(CCOCc1ccccc1)c1cc(F)ccc12 [Compound 165]					39.2		3	> 30	> 7	
O=C1CCN2C(=C1C(=O)Nc1ccccc1F)N(CCNC(=O)c1ccccc1)c1cc(F)ccc12 [Compound 46]					8.1	~10	1	30		
CCOCCN1C2=C(C(=O)Nc3ccc(F)cc3F)C(=O)CCN2c2ccc(F)cc21 [Compound 137]					2.4	1	< 1	0.15	1	
O=C1CCN2C(=C1C(=O)Nc1ccccc1F)N(CCN(Cc1ccccc1)Cc1ccccc1)c1cc(F)ccc12 [Compound 64]					3.02		3	> 30	> 10	
CNCCN1C2=C(C(=O)Nc3ccccc3F)C(=O)CCN2c2ccc(F)cc21 [Compound 59, 7-Fluoro-1,2-dihydro-5-[2-(methylamino)ethyl]-3-oxo-N-(2-fluorophenyl)pyrido[1,2-a]benzimidazole-4-carboxamide hydrochloride hydrate (4:4:5)]					16	1	3	10	10	
